# Calls of active or inactive are those of the source.
# Experiments:
# [1] = molecular target: T1, Heat shock factor protein 1 (Mus musculus, UniProt P38532); test: HSF1 potentiators in luciferase reporter cells, confirmation, cell-based, NIH3T3, luminescence, dose retest (AID 435004); format: functional;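 also: stress induced by proteasome inhibitor MG132 added 30 min after compound; luciferase reporter driven by HSF1 response element in NIH3T3 cells; actives raise luminescence as potentiators of the MG132 stress response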
# T1 sequence (P38532 whole entry): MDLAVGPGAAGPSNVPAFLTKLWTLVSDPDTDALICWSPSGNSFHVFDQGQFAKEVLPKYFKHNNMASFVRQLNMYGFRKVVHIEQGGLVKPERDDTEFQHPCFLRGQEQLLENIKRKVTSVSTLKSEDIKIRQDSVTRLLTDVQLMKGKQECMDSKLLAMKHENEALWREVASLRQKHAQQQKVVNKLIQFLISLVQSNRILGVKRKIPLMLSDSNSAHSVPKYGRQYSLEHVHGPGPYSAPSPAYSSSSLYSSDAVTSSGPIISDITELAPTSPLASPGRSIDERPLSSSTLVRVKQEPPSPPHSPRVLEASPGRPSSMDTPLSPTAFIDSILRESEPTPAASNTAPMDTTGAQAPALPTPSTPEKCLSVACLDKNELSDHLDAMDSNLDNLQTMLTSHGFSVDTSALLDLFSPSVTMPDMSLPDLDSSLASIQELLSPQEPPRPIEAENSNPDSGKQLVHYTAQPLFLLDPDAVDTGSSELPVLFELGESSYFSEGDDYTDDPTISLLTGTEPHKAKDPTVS
# [2] = molecular target: T2, Replicative DNA helicase DnaB (Mycobacterium tuberculosis, UniProt P9WMR3); test: DnaB intein splicing inhibitors, dose response, biochemical, cell-free fluorescence (AID 449749); format: functional
# T2 sequence (P9WMR3 whole entry): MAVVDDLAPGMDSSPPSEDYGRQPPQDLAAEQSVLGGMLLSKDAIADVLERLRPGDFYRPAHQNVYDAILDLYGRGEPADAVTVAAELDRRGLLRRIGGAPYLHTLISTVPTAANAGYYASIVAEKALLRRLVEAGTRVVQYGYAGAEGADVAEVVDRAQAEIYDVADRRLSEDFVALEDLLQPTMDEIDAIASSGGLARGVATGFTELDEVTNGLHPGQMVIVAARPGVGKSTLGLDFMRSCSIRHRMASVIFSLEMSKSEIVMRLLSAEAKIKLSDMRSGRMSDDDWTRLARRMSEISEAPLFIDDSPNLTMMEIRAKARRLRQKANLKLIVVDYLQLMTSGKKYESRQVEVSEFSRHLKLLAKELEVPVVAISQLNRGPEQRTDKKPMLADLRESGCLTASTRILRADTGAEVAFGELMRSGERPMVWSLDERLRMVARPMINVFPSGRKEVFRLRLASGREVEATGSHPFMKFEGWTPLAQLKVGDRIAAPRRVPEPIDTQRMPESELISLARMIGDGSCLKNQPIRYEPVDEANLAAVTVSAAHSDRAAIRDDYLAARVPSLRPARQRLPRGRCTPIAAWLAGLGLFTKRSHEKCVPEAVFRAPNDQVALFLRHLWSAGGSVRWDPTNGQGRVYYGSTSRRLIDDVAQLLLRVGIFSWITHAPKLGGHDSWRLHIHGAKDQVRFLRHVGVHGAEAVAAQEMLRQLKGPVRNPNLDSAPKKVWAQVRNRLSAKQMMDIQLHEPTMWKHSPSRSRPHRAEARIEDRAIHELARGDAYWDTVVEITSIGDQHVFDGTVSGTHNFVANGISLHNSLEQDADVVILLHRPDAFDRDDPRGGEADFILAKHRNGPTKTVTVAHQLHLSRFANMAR
# Protein RecA = molecular target: T3, Protein RecA (Mycobacterium tuberculosis, UniProt P9WHJ3); test: Fluorescence Cell-Free Homogeneous Dose Retest to Identify Inhibitors of RecA-Intein Splicing Activity. [Related pubchem assays (depositor defined):AID2097, AID2223, AID489010, AID492950]; format: functional
# T3 sequence (P9WHJ3 whole entry): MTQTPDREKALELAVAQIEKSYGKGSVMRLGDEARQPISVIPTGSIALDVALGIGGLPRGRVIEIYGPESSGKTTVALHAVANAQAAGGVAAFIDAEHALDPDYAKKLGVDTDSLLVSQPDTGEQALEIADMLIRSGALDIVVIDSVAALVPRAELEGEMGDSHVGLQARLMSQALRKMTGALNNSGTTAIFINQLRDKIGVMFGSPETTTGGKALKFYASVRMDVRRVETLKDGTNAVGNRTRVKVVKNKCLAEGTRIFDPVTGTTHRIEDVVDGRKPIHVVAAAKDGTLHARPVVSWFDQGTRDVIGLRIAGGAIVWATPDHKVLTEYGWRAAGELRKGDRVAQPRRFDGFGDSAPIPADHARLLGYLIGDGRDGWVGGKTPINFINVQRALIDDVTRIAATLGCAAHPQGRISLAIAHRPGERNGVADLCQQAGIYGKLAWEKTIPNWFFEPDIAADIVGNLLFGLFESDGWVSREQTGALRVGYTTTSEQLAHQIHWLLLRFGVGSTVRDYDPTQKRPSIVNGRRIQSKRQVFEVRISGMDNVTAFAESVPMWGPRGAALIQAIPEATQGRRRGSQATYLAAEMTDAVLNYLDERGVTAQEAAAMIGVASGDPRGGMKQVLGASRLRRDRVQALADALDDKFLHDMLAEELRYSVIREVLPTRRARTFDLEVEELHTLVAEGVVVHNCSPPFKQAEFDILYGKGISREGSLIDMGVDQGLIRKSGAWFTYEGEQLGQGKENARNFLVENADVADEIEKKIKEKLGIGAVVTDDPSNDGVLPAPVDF
# [3] = molecular target: Hepatocyte nuclear factor 4-alpha (Homo sapiens, UniProt P41235); format: functional, cell-based;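 also: biochemical luminescence-based dose-response counterscreen measuring inhibition of HNF4 dimerization, run alongside a screen for blockers of ABHD5–perilipin-5 interaction; split luciferase complementation of HNF4 fusion proteins in cell lysate measuring dimerization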
# Sequence of Hepatocyte nuclear factor 4-alpha (P41235 whole entry, the tested form may be a part): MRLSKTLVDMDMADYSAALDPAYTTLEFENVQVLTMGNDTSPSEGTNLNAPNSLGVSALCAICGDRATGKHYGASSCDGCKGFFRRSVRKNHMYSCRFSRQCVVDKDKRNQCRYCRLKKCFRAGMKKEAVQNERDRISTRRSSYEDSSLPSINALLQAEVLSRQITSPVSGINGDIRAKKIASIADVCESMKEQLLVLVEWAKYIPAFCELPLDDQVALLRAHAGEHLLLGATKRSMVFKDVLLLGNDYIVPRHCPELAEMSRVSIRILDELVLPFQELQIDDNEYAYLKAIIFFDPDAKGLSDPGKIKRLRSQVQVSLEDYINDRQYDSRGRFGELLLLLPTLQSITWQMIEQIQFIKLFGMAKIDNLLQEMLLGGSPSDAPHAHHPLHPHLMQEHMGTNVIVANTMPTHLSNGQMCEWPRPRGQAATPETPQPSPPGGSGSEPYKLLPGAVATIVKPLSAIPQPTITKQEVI
# [4] = MDA-MB-231 cell growth inhibition, dose response, cytotoxicity control for RAD54 inhibitor project, CellTiter-Glo luminescence, cherry-pick (AID 651692); format: functional, cell-based
# [5] = molecular target: T4, DNA repair and recombination protein RAD54-like (Homo sapiens, UniProt Q92698); test: inhibitors of human RAD54 branch migration, confirmation, biochemical, fluorescence, cherry-picked samples, dose series (AID 651657); format: functional
# T4 sequence (Q92698 whole entry): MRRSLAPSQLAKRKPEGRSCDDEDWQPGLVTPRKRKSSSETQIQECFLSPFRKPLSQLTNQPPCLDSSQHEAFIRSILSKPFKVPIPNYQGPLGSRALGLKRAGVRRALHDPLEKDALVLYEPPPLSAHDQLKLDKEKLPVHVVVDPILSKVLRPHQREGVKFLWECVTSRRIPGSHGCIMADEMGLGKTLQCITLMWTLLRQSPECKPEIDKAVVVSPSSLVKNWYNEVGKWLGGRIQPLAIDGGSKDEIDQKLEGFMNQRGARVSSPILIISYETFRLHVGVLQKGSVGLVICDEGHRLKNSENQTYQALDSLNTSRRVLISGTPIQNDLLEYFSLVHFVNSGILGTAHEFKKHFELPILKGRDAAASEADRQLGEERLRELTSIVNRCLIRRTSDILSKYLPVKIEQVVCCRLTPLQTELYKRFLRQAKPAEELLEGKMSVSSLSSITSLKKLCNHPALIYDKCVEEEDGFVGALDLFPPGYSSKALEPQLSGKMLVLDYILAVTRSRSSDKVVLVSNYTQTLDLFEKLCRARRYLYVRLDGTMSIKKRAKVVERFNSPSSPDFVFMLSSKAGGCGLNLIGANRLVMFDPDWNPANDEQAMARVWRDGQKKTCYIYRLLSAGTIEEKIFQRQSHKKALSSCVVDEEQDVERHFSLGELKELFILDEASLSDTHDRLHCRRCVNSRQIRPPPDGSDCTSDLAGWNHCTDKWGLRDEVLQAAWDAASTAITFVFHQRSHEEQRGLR
# [6] = molecular target: T5, Corticotropin-releasing factor receptor 2/Corticotropin-releasing factor-binding protein (Homo sapiens, UniProt P24387+Q13324); test: Dose Response confirmation of uHTS hits for small molecule antagonists of the CRF-binding protein and CRF-R2 receptor complex.; format: functional; conditions: read-out: IC50_Mean
# T5 sequence (Q13324 whole entry): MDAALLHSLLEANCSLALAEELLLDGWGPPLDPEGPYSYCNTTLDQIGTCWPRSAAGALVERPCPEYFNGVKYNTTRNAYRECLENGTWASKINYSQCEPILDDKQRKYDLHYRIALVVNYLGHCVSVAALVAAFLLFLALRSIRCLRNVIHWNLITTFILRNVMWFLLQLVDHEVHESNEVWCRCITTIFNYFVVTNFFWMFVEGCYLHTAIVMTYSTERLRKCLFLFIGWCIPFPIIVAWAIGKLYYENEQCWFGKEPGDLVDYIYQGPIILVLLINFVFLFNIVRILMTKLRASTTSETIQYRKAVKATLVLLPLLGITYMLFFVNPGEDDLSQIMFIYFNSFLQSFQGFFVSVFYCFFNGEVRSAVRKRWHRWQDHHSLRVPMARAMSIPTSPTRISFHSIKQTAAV
# T5 sequence (P24387 whole entry): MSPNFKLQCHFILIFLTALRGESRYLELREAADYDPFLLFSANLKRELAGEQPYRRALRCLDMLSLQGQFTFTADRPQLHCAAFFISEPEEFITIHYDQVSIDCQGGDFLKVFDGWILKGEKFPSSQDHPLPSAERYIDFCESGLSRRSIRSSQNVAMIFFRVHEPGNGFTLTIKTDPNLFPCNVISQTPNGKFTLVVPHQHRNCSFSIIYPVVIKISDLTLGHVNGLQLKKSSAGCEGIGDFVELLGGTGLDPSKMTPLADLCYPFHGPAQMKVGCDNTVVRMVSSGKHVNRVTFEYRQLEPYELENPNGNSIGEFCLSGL
# [7] = molecular target: T5, Corticotropin-releasing factor receptor 2/Corticotropin-releasing factor-binding protein; test: activators of CRF receptor 2 with binding protein – uHTS hits, confirmation (AID 602473); format: functional; conditions: read-out: EC50_Mean
# [8] = CRF-BP/CRF-R2 complex antagonists, dose response, cell-based, uHTS hits, 384-well (AID 651639); format: functional, Homo sapiens; conditions: read-out: IC50_Mean
# [9] = molecular target: Photoreceptor-specific nuclear receptor (Homo sapiens, UniProt Q9Y5X4); format: functional, cell-based;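 also: CHO-S cells with Gal4-NCOR and VP16-NR2E3 two-hybrid luciferase reporter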
# Sequence of Photoreceptor-specific nuclear receptor (Q9Y5X4 whole entry, the tested form may be a part): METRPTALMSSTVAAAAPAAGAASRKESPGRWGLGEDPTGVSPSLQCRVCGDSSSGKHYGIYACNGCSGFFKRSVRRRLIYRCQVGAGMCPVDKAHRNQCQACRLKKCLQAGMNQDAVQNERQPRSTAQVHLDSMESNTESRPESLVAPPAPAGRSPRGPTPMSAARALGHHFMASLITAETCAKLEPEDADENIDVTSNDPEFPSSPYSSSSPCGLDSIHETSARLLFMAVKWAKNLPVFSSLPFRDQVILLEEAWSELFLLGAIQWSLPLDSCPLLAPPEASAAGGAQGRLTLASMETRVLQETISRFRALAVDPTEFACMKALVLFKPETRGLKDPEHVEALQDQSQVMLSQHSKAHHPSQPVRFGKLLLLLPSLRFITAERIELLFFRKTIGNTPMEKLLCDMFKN
# H9c2 = test: cells; format: functional, cell-based; conditions: Rattus norvegicus, H9c2, Myocardium;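 also: confirmatory concentration-response retest of ultra-high-throughput screening hits for modulation of myocardial damage; cell death induced by hydrogen peroxide oxidative stress; compound pretreatment for 60 min then peroxide exposure for 2 h; potency is for protecting the cells against peroxide damage rather than for killing them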
# [10] = molecular target: T6, ATP-dependent translocase ABCB1 (Homo sapiens, UniProt P08183); test: ABCG2 efflux pump inhibitor potency, dose response, Ig-MXP3 cells, JC-1, flow cytometry, set 2 (AID 504566); format: functional; conditions: read-out: EC50_MICROM_;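 also: flow cytometry median green fluorescence of retained JC-1 dye; potency of efflux pump inhibition measured as rising substrate retention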
# T6 sequence (P08183 whole entry): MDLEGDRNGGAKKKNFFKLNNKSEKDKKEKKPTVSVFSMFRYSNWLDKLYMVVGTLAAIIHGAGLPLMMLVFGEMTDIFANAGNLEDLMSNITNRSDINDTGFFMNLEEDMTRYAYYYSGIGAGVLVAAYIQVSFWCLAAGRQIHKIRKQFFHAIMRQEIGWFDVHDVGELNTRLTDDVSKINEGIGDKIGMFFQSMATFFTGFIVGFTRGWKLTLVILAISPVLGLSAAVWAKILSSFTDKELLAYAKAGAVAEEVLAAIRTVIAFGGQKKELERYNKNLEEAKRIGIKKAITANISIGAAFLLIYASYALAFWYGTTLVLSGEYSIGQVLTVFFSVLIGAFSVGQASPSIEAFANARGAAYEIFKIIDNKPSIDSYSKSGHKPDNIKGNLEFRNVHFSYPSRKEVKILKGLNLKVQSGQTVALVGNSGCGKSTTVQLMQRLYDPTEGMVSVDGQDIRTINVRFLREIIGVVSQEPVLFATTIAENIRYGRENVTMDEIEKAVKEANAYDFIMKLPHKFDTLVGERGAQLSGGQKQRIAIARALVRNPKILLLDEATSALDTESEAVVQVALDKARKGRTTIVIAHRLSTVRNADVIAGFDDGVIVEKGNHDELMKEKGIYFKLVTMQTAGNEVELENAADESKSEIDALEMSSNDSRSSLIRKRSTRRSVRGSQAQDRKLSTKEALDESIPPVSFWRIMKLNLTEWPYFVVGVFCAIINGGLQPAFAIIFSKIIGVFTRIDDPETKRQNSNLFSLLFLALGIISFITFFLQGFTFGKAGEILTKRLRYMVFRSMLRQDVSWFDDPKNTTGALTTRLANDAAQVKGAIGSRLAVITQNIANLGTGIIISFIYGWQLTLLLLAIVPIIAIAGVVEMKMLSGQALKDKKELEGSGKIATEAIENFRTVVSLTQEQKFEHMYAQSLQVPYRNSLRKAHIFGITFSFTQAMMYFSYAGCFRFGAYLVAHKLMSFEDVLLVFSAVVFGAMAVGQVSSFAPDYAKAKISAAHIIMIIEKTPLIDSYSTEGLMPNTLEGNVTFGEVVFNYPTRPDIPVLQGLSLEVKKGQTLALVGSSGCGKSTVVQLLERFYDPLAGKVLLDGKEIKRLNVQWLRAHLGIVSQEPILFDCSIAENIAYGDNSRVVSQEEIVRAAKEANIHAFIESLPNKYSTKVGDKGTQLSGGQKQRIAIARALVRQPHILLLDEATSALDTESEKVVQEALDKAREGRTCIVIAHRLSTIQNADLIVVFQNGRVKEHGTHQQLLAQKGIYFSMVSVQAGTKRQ
# [11] = molecular target: T6, ATP-dependent translocase ABCB1; test: ABCB1 efflux inhibitor potency, dose response, Jurkat-DNR cells, JC-1, flow cytometry, set 2 (AID 504569); format: functional; conditions: read-out: EC50_MICROM_;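 also: potency of pump inhibitors that raise cellular JC-1 green fluorescence up to the nicardipine level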
# [12] = molecular target: T7, Carboxy-terminal domain RNA polymerase II polypeptide A small phosphatase 1 (Homo sapiens, UniProt Q9GZU7); test: inhibitors of CTDSP1, concentration-response testing, biochemical assay, absorbance-based, actives from ultra-high-throughput screening (AID 540297); format: functional
# T7 sequence (Q9GZU7 whole entry): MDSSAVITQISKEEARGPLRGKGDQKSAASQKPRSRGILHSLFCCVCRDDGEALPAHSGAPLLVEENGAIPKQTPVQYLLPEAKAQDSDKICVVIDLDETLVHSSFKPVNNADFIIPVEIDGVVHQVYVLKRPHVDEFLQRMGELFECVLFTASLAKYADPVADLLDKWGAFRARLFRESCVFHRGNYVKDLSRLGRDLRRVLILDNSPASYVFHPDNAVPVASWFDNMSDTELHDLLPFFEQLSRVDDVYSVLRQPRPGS
# [13] = molecular target: T8, Low molecular weight phosphotyrosine protein phosphatase (Homo sapiens, UniProt P24666); format: functional; conditions: read-out: IC50_Mean
# T8 sequence (P24666 whole entry): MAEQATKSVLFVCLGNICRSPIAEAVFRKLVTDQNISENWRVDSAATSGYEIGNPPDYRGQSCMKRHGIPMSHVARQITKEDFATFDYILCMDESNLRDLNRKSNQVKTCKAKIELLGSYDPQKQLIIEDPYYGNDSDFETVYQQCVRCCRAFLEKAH
# [14] = molecular target: T8, Low molecular weight phosphotyrosine protein phosphatase; format: functional; conditions: read-out: IC50_Mean; remark: listed apart in the source
# [15] = HEp-2 cell cytotoxicity, dose response, cytotoxicity control for RSV inhibitor project, HTS (AID 2410); format: functional; conditions: human respiratory syncytial virus
# [16] = inhibitors of intracellular T. cruzi replication, confirmation, NIH3T3 host cells, beta-gal luminescence (AID 2044); format: functional, cell-based;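 also: intracellular parasites grown in NIH/3T3 mouse fibroblasts as host cells; luminescent beta-galactosidase reporter signal from transgenic T. cruzi replicating inside host cells; inhibitors lower the luminescence signal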
# [17] = cytotoxicity toward NIH3T3 fibroblasts, dose response, counter-screen, cell-based, ATP luminescence, mouse fibroblasts (AID 2010); format: functional;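 also: cells exposed to compound for about 90 hours before reading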
# [18] = molecular target: T9, Probable nicotinate-nucleotide adenylyltransferase (Staphylococcus aureus (strain N315), UniProt P65502); format: functional, Staphylococcus aureus subsp. aureus N315;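 as to IC50 Mean: confirmatory dose-response retesting of NadD inhibitor hits first found in an ultra-high-throughput screen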
# T9 sequence (P65502 whole entry): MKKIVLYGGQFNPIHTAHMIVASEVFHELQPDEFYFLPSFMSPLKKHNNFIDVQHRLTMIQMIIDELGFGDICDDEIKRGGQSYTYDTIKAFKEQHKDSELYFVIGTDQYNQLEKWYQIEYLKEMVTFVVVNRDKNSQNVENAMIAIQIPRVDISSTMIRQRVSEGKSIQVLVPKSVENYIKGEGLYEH
# [19] = molecular target: T9, Probable nicotinate-nucleotide adenylyltransferase; format: functional, Staphylococcus aureus subsp. aureus N315; conditions: read-out: IC50_Mean
# Albumin = Albumin (Bos taurus, UniProt P02769); test: Counterscreen for inhibitors of T-cell receptor (TCR)-CD3 interaction: Fluorescence-based biochemical high throughput dose response assay to identify inhibitors of T-cell receptor (TCR)-CD3 interaction using a TAMRA-labeled BSA probe.; format: functional
# Sequence of Albumin (P02769 whole entry): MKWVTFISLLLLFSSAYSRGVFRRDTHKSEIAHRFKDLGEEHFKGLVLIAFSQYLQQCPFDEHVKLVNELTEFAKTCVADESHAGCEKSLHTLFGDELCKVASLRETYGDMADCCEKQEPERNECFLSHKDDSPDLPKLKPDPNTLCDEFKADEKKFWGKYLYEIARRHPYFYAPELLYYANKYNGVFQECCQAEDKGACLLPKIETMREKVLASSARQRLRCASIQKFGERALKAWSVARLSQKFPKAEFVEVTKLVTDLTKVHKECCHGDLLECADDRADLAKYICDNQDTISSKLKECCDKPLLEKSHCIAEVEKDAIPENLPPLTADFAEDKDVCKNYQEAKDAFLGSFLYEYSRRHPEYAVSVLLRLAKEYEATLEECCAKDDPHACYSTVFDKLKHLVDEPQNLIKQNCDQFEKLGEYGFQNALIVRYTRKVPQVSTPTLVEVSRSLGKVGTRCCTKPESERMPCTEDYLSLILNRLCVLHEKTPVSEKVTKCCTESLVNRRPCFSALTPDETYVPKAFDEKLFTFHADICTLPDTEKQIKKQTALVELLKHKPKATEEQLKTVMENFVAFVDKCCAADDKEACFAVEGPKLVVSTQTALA
structure (smiles),measurement,setting,value
N#Cc1ncc(Cc2ccccc2)nc1C#N,EC50,[1],18.1 µM (active)
same,AC50,[2],2.42 µM (active)
same,EC50,Protein RecA,1.71 µM (active)
same,IC50,[3],18.1 µM (inactive)
CCCCN(CC)CCNC(=O)c1cc2c(O)nc3ccc(C)cc3c2s1,AC50,[4],23.1 µM (active)
same,AC50,[5],100 µM (inactive)
CN(CCOc1ccc(Cl)cc1)C(=O)C1CCN(C(=O)c2ccc(Cl)cc2)CC1,IC50,[6],< 0.368 µM (active)
same,EC50,[7],> 53 µM (inactive)
same,IC50,[8],> 20 µM (inactive)
O=C(O)CC1(CC(=O)Nc2cc(C(F)(F)F)cc(C(F)(F)F)c2)CCCCC1,IC50,[9],2.23 µM (active)
COc1ccc(-c2cc3nc(-c4ccccc4)cc(N4CCN(C(C)=O)CC4)n3n2)cc1,IC50,H9c2,> 79 µM (inactive)
same,EC50,[10],1.47 µM (active)
same,EC50,[11],1.94 µM (active)
O=C(NNC(=O)c1ccc2ccccc2c1)c1ccc(Cl)cc1,IC50,[12],> 80 µM (inactive)
same,IC50,[13],54.1 µM (inactive)
same,IC50,[14],20 µM (inactive)
COCCn1/c(=N/C(=O)c2cc(-c3cccs3)nc3ccccc23)sc2cc(S(N)(=O)=O)ccc21,CC50,[15],> 50 µM (active)
same,EC50,[16],2.47 µM (active)
same,EC50,[17],> 60 µM (not active)
same,IC50,[18],12.4 µM (active)
same,IC50,[19],23.8 µM (active)
same,IC50,Albumin,> 94.1 µM (inactive)

# Reference: ChEMBL document CHEMBL1201862, “PubChem BioAssay data set” (2004)
